Biological target: T1, Trifunctional purine biosynthetic protein adenosine-3 (Mus musculus, UniProt Q64737)
T1 sequence (Q64737 whole entry): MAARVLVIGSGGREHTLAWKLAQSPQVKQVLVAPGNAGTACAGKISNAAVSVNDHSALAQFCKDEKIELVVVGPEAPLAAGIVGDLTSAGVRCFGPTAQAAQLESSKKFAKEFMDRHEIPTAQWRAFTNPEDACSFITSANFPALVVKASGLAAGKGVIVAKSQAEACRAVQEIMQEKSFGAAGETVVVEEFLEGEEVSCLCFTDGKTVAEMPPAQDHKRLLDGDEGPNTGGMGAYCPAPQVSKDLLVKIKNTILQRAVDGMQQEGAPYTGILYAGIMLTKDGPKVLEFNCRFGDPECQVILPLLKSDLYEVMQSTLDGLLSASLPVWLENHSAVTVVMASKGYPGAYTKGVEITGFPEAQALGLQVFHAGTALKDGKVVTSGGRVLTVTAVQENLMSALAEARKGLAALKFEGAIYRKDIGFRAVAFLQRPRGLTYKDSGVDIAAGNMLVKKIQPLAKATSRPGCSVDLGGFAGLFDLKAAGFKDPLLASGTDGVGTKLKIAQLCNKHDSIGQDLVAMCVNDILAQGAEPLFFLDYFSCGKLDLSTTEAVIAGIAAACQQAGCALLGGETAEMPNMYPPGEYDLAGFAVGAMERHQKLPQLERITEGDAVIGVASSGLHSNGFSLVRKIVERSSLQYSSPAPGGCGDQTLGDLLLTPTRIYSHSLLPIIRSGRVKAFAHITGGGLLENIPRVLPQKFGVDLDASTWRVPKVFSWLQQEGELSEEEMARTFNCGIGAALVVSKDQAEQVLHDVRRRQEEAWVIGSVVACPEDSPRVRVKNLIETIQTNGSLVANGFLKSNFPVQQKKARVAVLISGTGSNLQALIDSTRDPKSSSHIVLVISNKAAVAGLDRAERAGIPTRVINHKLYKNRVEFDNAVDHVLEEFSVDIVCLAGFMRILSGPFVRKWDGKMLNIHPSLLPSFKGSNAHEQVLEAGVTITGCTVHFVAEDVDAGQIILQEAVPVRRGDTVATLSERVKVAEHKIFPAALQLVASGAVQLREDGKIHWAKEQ
Experiment: Inhibition of mouse recombinant GARFTase
Conditions: not given
Molecule `Nc1nc2sc(CCCc3ccc(C(=O)N[C@@H](CCC(=O)O)C(=O)O)cc3)cc2c(=O)[nH]1` has an IC50 of 8520 nM.
`Nc1nc2sc(CCc3ccc(C(=O)N[C@@H](CCC(=O)O)C(=O)O)cc3)cc2c(=O)[nH]1` gave an IC50 greater than 20000 nM.

System: KB
Experiment: Antiproliferative activity against human KB cells expressing human reduced folate carrier/folate receptor alpha after 96 hrs by celltiter-blue cell viability assay in presence of folic acid
Conditions: not given
For `Nc1nc2sc(CCCc3ccc(C(=O)N[C@@H](CCC(=O)O)C(=O)O)cc3)cc2c(=O)[nH]1`, the IC50 was greater than 1000 nM.
For `Nc1nc2sc(CCc3ccc(C(=O)N[C@@H](CCC(=O)O)C(=O)O)cc3)cc2c(=O)[nH]1`, the IC50 was greater than 1000 nM.

Biological target: Folate receptor alpha (Homo sapiens) (UniProt P15328)
Sequence (P15328 25-234 limits assumed): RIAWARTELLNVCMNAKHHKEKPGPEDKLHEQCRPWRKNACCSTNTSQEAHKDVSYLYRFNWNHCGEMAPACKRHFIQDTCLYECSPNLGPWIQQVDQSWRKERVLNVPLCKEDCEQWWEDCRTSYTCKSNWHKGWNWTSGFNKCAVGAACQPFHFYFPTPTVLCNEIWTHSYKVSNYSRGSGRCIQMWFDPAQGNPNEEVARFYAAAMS
Experiment: Displacement of [3H]folic acid from human folate receptor alpha in chinese hamster RT16 cells assessed as relative binding affinity relative to folic acid
Type: cell-based
Conditions: not given
Molecule `Nc1nc2sc(CCCc3ccc(C(=O)N[C@@H](CCC(=O)O)C(=O)O)cc3)cc2c(=O)[nH]1` has a relative binding affinity (RBA) greater than 0.8.
For `Nc1nc2sc(CCc3ccc(C(=O)N[C@@H](CCC(=O)O)C(=O)O)cc3)cc2c(=O)[nH]1`, the relative binding affinity (RBA) was 0.25.

System: not listed separately
Experiment: Antiproliferative activity against chinese hamster RT16 cells expressing human folate receptor alpha after 96 hrs by celltiter-blue cell viability assay
Conditions: Cricetulus griseus, RT16, 96 h
With `Nc1nc2sc(CCc3ccc(C(=O)N[C@@H](CCC(=O)O)C(=O)O)cc3)cc2c(=O)[nH]1` the IC50 was greater than 1000 nM.

Biological target: T2, Trifunctional purine biosynthetic protein adenosine-3 (Homo sapiens, UniProt P22102)
T2 sequence (P22102 whole entry): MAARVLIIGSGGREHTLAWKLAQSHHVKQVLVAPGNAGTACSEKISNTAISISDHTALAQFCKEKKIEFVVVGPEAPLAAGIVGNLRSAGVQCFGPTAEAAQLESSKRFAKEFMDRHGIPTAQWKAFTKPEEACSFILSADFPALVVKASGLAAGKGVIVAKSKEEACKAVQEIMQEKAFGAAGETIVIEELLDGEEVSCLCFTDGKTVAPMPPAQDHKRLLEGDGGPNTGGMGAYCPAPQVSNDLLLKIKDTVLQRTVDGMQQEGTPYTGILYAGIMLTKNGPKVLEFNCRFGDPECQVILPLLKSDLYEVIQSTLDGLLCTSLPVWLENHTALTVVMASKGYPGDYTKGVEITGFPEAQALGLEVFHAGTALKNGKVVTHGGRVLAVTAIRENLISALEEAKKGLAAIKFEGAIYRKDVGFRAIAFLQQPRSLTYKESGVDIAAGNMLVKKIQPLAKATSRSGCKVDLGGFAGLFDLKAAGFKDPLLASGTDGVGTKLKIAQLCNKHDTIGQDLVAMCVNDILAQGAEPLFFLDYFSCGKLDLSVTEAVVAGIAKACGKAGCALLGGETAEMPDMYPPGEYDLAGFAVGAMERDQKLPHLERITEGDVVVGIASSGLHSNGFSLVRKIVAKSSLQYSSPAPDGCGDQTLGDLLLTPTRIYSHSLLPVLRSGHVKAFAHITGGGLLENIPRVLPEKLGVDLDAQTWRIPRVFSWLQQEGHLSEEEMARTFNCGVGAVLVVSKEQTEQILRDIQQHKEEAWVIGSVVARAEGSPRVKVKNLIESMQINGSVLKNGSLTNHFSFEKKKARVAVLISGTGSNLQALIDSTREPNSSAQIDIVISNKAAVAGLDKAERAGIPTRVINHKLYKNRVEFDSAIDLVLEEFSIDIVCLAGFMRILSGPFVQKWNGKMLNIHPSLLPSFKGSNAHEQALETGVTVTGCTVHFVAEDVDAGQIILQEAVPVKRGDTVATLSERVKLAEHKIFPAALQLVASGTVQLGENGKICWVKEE
Experiment: Inhibition of GARFTase in human KB cells assessed as inhibition of incorporation of [14C]glycine into [14C]formyl GAR after 30 mins in presence of azaserine
Conditions: not given
For `Nc1nc2sc(CCc3ccc(C(=O)N[C@@H](CCC(=O)O)C(=O)O)cc3)cc2c(=O)[nH]1`, the IC50 was 32.3 nM.

Biological target: Folate receptor beta (Homo sapiens) (UniProt P14207)
Sequence (P14207 17-230 limits assumed): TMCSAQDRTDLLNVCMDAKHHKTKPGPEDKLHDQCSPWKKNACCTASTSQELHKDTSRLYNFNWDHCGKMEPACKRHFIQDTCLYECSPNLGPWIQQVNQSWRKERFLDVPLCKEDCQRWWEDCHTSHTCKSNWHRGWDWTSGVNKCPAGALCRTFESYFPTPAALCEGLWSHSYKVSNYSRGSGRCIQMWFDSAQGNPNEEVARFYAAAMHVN
Experiment: Displacement of [3H]folic acid from human folate receptor beta in chinese hamster D4 cells assessed as relative binding affinity relative to folic acid
Type: cell-based
Conditions: not given
For `Nc1nc2sc(CCCc3ccc(C(=O)N[C@@H](CCC(=O)O)C(=O)O)cc3)cc2c(=O)[nH]1`, the relative binding affinity (RBA) was greater than 0.8.
Work on `Nc1nc2sc(CCc3ccc(C(=O)N[C@@H](CCC(=O)O)C(=O)O)cc3)cc2c(=O)[nH]1` yielded a relative binding affinity (RBA) of less than 0.01.

System: not listed separately
Experiment: Antiproliferative activity against chinese hamster MTXRII-OuaR2-4 cells expressing empty pCDNA3.1 after 96 hrs by celltiter-blue cell viability assay
Conditions: Cricetulus griseus
With `Nc1nc2sc(CCCc3ccc(C(=O)N[C@@H](CCC(=O)O)C(=O)O)cc3)cc2c(=O)[nH]1` the IC50 was greater than 1000 nM.
With `Nc1nc2sc(CCc3ccc(C(=O)N[C@@H](CCC(=O)O)C(=O)O)cc3)cc2c(=O)[nH]1` the IC50 was greater than 1000 nM.

System: not listed separately
Experiment: Antiproliferative activity against chinese hamster PC43-10 cells expressing human reduced folate carrier after 96 hrs by celltiter-blue cell viability assay
Conditions: Cricetulus griseus, PC43-10, 96 h
With `Nc1nc2sc(CCCc3ccc(C(=O)N[C@@H](CCC(=O)O)C(=O)O)cc3)cc2c(=O)[nH]1` the IC50 was greater than 1000 nM.
With `Nc1nc2sc(CCc3ccc(C(=O)N[C@@H](CCC(=O)O)C(=O)O)cc3)cc2c(=O)[nH]1` the IC50 was greater than 1000 nM.

System: not listed separately
Experiment: Antiproliferative activity against chinese hamster RT16 cells expressing human folate receptor alpha after 96 hrs by celltiter-blue cell viability assay in presence of folic acid
Conditions: Cricetulus griseus, RT16, 96 h
In the case of `Nc1nc2sc(CCCc3ccc(C(=O)N[C@@H](CCC(=O)O)C(=O)O)cc3)cc2c(=O)[nH]1`, the IC50 is reported as greater than 1000 nM.
For `Nc1nc2sc(CCc3ccc(C(=O)N[C@@H](CCC(=O)O)C(=O)O)cc3)cc2c(=O)[nH]1`, the IC50 was greater than 1000 nM.

System: IGROV-1
Experiment: Antiproliferative activity against human IGROV1 cells expressing human reduced folate carrier/folate receptor alpha after 96 hrs by celltiter-blue cell viability assay in presence of folic acid
Conditions: IGROV-1, 96 h
`Nc1nc2sc(CCCc3ccc(C(=O)N[C@@H](CCC(=O)O)C(=O)O)cc3)cc2c(=O)[nH]1` showed an IC50 greater than 1000 nM.
Work on `Nc1nc2sc(CCc3ccc(C(=O)N[C@@H](CCC(=O)O)C(=O)O)cc3)cc2c(=O)[nH]1` yielded an IC50 greater than 1000 nM.

System: IGROV-1
Experiment: Antiproliferative activity against human IGROV1 cells expressing human reduced folate carrier/folate receptor alpha after 96 hrs by celltiter-blue cell viability assay
Conditions: IGROV-1, 96 h
`Nc1nc2sc(CCc3ccc(C(=O)N[C@@H](CCC(=O)O)C(=O)O)cc3)cc2c(=O)[nH]1` showed an IC50 greater than 1000 nM.

System: not listed separately
Experiment: Antiproliferative activity against chinese hamster MTXRII-OuaR2-4 cells expressing human proton-coupled folate transporter after 96 hrs by celltiter-blue cell viability assay
Conditions: Cricetulus griseus
Molecule `Nc1nc2sc(CCCc3ccc(C(=O)N[C@@H](CCC(=O)O)C(=O)O)cc3)cc2c(=O)[nH]1` has an IC50 greater than 1000 nM.
Molecule `Nc1nc2sc(CCc3ccc(C(=O)N[C@@H](CCC(=O)O)C(=O)O)cc3)cc2c(=O)[nH]1` has an IC50 greater than 1000 nM.

System: not listed separately
Experiment: Antiproliferative activity against chinese hamster D4 cells expressing human folate receptor beta after 96 hrs by celltiter-blue cell viability assay in presence of folic acid
Conditions: Cricetulus griseus, D4, 96 h
`Nc1nc2sc(CCCc3ccc(C(=O)N[C@@H](CCC(=O)O)C(=O)O)cc3)cc2c(=O)[nH]1` showed an IC50 greater than 1000 nM.
`Nc1nc2sc(CCc3ccc(C(=O)N[C@@H](CCC(=O)O)C(=O)O)cc3)cc2c(=O)[nH]1` showed an IC50 greater than 1000 nM.

System: KB
Experiment: Antiproliferative activity against human KB cells expressing human reduced folate carrier/folate receptor alpha after 96 hrs by celltiter-blue cell viability assay
Conditions: not given
In the case of `Nc1nc2sc(CCc3ccc(C(=O)N[C@@H](CCC(=O)O)C(=O)O)cc3)cc2c(=O)[nH]1`, the IC50 is reported as greater than 1000 nM.

System: not listed separately
Experiment: Antiproliferative activity against chinese hamster D4 cells expressing human folate receptor beta after 96 hrs by celltiter-blue cell viability assay
Conditions: Cricetulus griseus, D4, 96 h
Molecule `Nc1nc2sc(CCCc3ccc(C(=O)N[C@@H](CCC(=O)O)C(=O)O)cc3)cc2c(=O)[nH]1` has an IC50 of 112 nM.
In the case of `Nc1nc2sc(CCc3ccc(C(=O)N[C@@H](CCC(=O)O)C(=O)O)cc3)cc2c(=O)[nH]1`, the IC50 is reported as greater than 1000 nM.

System: not listed separately
Experiment: Antiproliferative activity against chinese hamster MTXRII-OuaR2-4 cells expressing human reduced folate carrier after 96 hrs by celltiter-blue cell viability assay
Conditions: Cricetulus griseus
For `Nc1nc2sc(CCCc3ccc(C(=O)N[C@@H](CCC(=O)O)C(=O)O)cc3)cc2c(=O)[nH]1`, the IC50 was greater than 1000 nM.
For `Nc1nc2sc(CCc3ccc(C(=O)N[C@@H](CCC(=O)O)C(=O)O)cc3)cc2c(=O)[nH]1`, the IC50 was greater than 1000 nM.

Reference: ChEMBL document CHEMBL1138482 (J Med Chem, 2009)
